The source made the active and inactive calls.
Key:
[1] = Half life in Sprague-Dawley rat plasma by LC-MS/MS analysis; format: ADME, cell-free
[2] = Half life in human plasma by LC-MS/MS analysis; format: ADME, cell-free
[3] = Stability in PBS; format: physicochemical; conditions: buffer
[4] = biological target: T1, Prostaglandin G/H synthase 2 (Mus musculus) (UniProt Q05769); assay: Inhibition of COX2 in mouse RAW264.7 cells assessed as reduction in LPS-induced inflammation by measuring reduction in PGE2 level at 1 uM treated 1 hr after LPS stimulation and measured after 18 hrs by ELISA relative to control; format: cell-based
T1 sequence (whole entry): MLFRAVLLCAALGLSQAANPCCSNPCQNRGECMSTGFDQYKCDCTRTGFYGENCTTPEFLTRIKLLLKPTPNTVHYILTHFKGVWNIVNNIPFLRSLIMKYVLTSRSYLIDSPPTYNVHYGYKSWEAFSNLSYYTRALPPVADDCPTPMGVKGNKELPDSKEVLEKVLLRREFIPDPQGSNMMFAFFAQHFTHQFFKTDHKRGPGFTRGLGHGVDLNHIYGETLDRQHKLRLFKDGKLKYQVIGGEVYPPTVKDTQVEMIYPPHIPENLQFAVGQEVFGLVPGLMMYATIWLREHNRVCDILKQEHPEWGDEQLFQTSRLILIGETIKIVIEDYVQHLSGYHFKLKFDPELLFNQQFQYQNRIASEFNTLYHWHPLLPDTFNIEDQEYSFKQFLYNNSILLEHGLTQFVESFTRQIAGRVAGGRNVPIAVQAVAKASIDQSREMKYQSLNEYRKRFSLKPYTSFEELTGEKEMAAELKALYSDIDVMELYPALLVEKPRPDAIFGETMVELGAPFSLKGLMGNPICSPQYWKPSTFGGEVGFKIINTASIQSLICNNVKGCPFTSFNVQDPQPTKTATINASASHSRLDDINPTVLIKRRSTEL

Rattus norvegicus [5] = assay: Antihyperalgesic activity in Sprague-Dawley rat model of Complete freund's adjuvant-induced arthritis assessed as increase in pain threshold of ipsilateral paw at 10 mg/kg, po starting from day 14 after CFA injection and measured at 0 to 60 mins by paw pressure test; format: functional, organism-based
[6] = biological target: T1, Prostaglandin G/H synthase 2 (Mus musculus); assay: Inhibition of COX2 in mouse RAW264.7 cells assessed as reduction in LPS-induced inflammation by measuring reduction in PGE2 level at 100 uM treated 1 hr after LPS stimulation and measured after 18 hrs by ELISA relative to control; format: cell-based
[7] = biological target: COX1 (Prostaglandin G/H synthase 1) (Homo sapiens, UniProt P23219); assay: Inhibition of COX1 in human platelet rich plasma in assessed as inhibition of ADP-induced platelet aggregation at 10 uM incubated for 5 mins by turbidimetry based Born's method relative to control
COX1 (Prostaglandin G/H synthase 1), sequence (P23219 whole entry): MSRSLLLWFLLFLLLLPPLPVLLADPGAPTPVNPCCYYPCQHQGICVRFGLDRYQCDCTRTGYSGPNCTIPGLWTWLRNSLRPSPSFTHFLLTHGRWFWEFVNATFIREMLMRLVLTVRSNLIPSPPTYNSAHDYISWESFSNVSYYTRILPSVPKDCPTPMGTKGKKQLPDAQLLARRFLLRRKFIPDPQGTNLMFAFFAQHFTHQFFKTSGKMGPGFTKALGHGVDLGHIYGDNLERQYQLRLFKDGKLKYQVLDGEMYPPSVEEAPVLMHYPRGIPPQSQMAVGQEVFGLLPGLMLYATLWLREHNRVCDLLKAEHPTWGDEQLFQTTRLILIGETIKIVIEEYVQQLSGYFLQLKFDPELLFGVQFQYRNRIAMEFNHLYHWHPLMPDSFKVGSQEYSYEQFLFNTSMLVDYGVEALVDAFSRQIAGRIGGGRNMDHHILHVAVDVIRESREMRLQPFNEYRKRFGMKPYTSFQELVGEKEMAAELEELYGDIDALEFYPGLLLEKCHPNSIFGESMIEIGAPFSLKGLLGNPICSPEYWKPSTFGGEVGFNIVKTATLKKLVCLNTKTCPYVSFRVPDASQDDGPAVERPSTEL

[8] = biological target: Carbonic anhydrase 9 (Homo sapiens) (UniProt Q16790)
Description: Inhibition of human CA9 pre-incubated for 6 hrs by stopped- flow CO2 hydrase assay method based Cheng-Prusoff equation analysis

[9] = biological target: Carbonic anhydrase 1 (Homo sapiens) (UniProt P00915)
Carbonic anhydrase 1 (Homo sapiens), sequence (P00915 2-261 limits assumed): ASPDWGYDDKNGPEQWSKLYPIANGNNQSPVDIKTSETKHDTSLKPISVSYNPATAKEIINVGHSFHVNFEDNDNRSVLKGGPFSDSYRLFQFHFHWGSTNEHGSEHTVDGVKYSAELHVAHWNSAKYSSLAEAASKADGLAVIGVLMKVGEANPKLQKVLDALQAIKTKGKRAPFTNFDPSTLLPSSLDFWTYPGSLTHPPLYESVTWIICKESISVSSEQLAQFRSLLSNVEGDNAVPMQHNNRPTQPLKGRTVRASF
Description: Inhibition of human CA1 pre-incubated for 6 hrs by stopped- flow CO2 hydrase assay method based Cheng-Prusoff equation analysis

[10] = biological target: Carbonic anhydrase 2 (Homo sapiens) (UniProt P00918)
Description: Inhibition of human CA2 pre-incubated for 6 hrs by stopped- flow CO2 hydrase assay method based Cheng-Prusoff equation analysis

[11] = biological target: Carbonic anhydrase 4 (Homo sapiens) (UniProt P22748)
Carbonic anhydrase 4 (Homo sapiens), sequence (P22748 whole entry): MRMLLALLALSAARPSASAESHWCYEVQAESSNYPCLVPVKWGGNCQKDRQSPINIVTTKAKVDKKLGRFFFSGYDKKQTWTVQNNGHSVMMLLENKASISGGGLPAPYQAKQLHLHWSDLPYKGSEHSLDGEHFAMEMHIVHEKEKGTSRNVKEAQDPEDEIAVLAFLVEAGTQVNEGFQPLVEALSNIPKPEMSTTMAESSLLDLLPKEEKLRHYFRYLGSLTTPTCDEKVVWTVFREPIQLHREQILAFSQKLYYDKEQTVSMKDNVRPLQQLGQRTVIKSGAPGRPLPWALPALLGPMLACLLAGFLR
Description: Inhibition of human CA4 pre-incubated for 6 hrs by stopped- flow CO2 hydrase assay method based Cheng-Prusoff equation analysis

[12] = biological target: Carbonic anhydrase 12 (Homo sapiens) (UniProt O43570)
Carbonic anhydrase 12 (Homo sapiens), sequence (O43570 whole entry): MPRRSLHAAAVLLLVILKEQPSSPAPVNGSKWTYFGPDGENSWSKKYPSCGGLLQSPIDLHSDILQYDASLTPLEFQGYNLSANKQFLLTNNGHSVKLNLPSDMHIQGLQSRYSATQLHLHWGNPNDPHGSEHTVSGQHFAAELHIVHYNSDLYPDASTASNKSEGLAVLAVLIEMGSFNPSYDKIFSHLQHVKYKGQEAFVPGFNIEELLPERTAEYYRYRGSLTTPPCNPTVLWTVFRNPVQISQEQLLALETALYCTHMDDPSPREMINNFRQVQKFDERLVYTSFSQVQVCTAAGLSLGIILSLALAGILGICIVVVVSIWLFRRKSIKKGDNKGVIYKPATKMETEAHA
Description: Inhibition of human CA12 pre-incubated for 6 hrs by stopped- flow CO2 hydrase assay method based Cheng-Prusoff equation analysis

[13] = biological target: Carbonic anhydrase 7 (Homo sapiens) (UniProt P43166)
Carbonic anhydrase 7 (Homo sapiens), sequence (P43166 whole entry): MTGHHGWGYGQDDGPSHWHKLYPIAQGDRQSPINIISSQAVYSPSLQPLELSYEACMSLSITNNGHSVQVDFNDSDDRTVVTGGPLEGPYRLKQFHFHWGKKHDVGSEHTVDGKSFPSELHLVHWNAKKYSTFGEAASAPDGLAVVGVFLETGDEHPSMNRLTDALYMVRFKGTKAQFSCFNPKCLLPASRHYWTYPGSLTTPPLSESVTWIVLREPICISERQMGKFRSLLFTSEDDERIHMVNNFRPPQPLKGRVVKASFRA
Description: Inhibition of human CA7 pre-incubated for 6 hrs by stopped- flow CO2 hydrase assay method based Cheng-Prusoff equation analysis

Rattus norvegicus [14] = assay: (§1) Antihyperalgesic activity in Sprague-Dawley rat model of Complete freund's adjuvant-induced arthritis assessed as reduction in difference between weight burdened on contralateral and ipsilateral paw at 30 mg/kg, po starting from day 14 after CFA injection and measured at 15 mins incapacitance test; format: functional, organism-based
Rattus norvegicus [15] = assay: Antihyperalgesic activity in Sprague-Dawley rat model of Complete freund's adjuvant-induced arthritis assessed as reduction in difference between weight burdened on contralateral and ipsilateral paw at 30 mg/kg, po starting from day 14 after CFA injection and measured at 45 mins incapacitance test; format: functional, organism-based
Rattus norvegicus [16] = assay: Antihyperalgesic activity in Sprague-Dawley rat model of Complete freund's adjuvant-induced arthritis assessed as reduction in difference between weight burdened on contralateral and ipsilateral paw at 30 mg/kg, po starting from day 14 after CFA injection and measured at 30 mins incapacitance test; format: functional, organism-based
Rattus norvegicus [17] = assay: Antihyperalgesic activity in Sprague-Dawley rat model of Complete freund's adjuvant-induced arthritis assessed as increase in pain threshold of ipsilateral paw at 30 mg/kg, po starting from day 14 after CFA injection and measured at 15 to 30 mins by paw pressure test; format: functional, organism-based
Rattus norvegicus [18] = assay: as §1, with “15 to 30” for “15”; format: functional, organism-based
Rattus norvegicus [19] = assay: Antihyperalgesic activity in Sprague-Dawley rat model of Complete freund's adjuvant-induced arthritis assessed as increase in pain threshold of ipsilateral paw at 100 mg/kg, po starting from day 14 after CFA injection and measured at 15 mins by paw pressure test; format: functional, organism-based

Row | Structure (SMILES) | half-life [1] [h] | half-life [2] [h] | Stability [3] | inhibition at 5 min, 10 µM [7] [%] | also measured
1 | CC(C(=O)NCCOc1ccc2oc(=O)ccc2c1)c1cccc(C(=O)c2ccccc2)c1 (stereo not given) | > 4 | > 4 | – | – | –
2 | O=C(Cc1ccccc1Nc1c(Cl)cccc1Cl)OCCOc1ccc2oc(=O)ccc2c1 | < 0.0167 | 0.533 | Stable | – | –
3 | CC(C)Cc1ccc(C(C)C(=O)NCCOc2ccc3ccc(=O)oc3c2)cc1 (stereo not given) | > 4 | > 4 | – | 5 to 30 | inhibition [4]: Active; Activity (Rattus norvegicus [5]): Active; inhibition [6]: Active
4 | CC(C)Cc1ccc(C(C)C(=O)OCCOc2ccc3oc(=O)ccc3c2)cc1 (racemic) | 0.0583 | > 4 | Stable | 5 to 30 | Ki [8]: 25.3 nM; Ki [9]: > 10000 nM; Ki [10]: > 10000 nM; Ki [11]: 3.6 nM; Ki [12]: 459 nM; Ki [13]: > 10000 nM
5 | CC(C(=O)NCCOc1ccc2ccc(=O)oc2c1)c1cccc(C(=O)c2ccccc2)c1 (stereo not given) | > 4 | > 4 | – | – | –
6 | CC(C(=O)OCCOc1ccc2ccc(=O)oc2c1)c1ccc(-c2ccccc2)c(F)c1 (racemic) | 0.04 | > 4 | Stable | – | –
7 | COc1ccc2c(c1)c(CC(=O)NCCOc1ccc3ccc(=O)oc3c1)c(C)n2C(=O)c1ccc(Cl)cc1 | > 4 | > 4 | – | – | –
8 | O=C(Cc1ccccc1Nc1c(Cl)cccc1Cl)NCCOc1ccc2oc(=O)ccc2c1 | > 4 | > 4 | – | 5 to 30 | inhibition [6]: 75%
9 | COc1ccc2cc([C@H](C)C(=O)OCCOc3ccc4ccc(=O)oc4c3)ccc2c1 | < 0.0167 | > 4 | Stable | – | –
10 | O=C(Cc1ccccc1Nc1c(Cl)cccc1Cl)NCCOc1ccc2ccc(=O)oc2c1 | > 4 | > 4 | – | > 15 | –
11 | COc1ccc2c(c1)c(CC(=O)OCCOc1ccc3ccc(=O)oc3c1)c(C)n2C(=O)c1ccc(Cl)cc1 | 0.0333 | > 4 | Stable | – | –
12 | CC(C(=O)O)c1cccc(C(=O)c2ccccc2)c1 (stereo not given) [KETOPROFEN] | – | – | – | 25 | Activity (Rattus norvegicus [14]): Active; Activity (Rattus norvegicus [15]): inactive; Activity (Rattus norvegicus [16]): inactive; Activity (Rattus norvegicus [17]): Active; Activity (Rattus norvegicus [18]): Active
13 | O=C(Cc1ccccc1Nc1c(Cl)cccc1Cl)OCCOc1ccc2ccc(=O)oc2c1 | < 0.0167 | 0.3 | Stable | – | –
14 | O=C(O)Cc1ccccc1Nc1c(Cl)cccc1Cl [DICLOFENAC] | – | – | – | 15 | –
15 | CC(C)Cc1ccc(C(C)C(=O)O)cc1 (stereo not given) [IBUPROFEN] | – | – | – | > 60 | Activity (Rattus norvegicus [19]): Active
16 | CC(C(=O)NCCOc1ccc2ccc(=O)oc2c1)c1ccc(-c2ccccc2)c(F)c1 (stereo not given) | > 4 | > 4 | – | – | –
17 | COc1ccc2cc([C@H](C)C(=O)OCCOc3ccc4oc(=O)ccc4c3)ccc2c1 | 0.0183 | > 4 | Stable | – | –
18 | CC(C)Cc1ccc(C(C)C(=O)NCCOc2ccc3oc(=O)ccc3c2)cc1 (stereo not given) | > 4 | > 4 | – | 5 to 30 | –
19 | CC(C)Cc1ccc(C(C)C(=O)OCCOc2ccc3ccc(=O)oc3c2)cc1 (racemic) | 0.0533 | > 4 | Stable | 5 to 30 | Ki [8]: 3.9 nM; Ki [9]: > 10000 nM; Ki [10]: > 10000 nM; Ki [11]: 6.5 nM; Ki [12]: 5.3 nM; Ki [13]: > 10000 nM
20 | CC(C(=O)OCCOc1ccc2oc(=O)ccc2c1)c1ccc(-c2ccccc2)c(F)c1 (racemic) | 0.0217 | > 4 | Stable | – | –
21 | CC1=C(CC(=O)OCCOc2ccc3ccc(=O)oc3c2)c2cc(F)ccc2/C1=C\c1ccc([S+](C)[O-])cc1 (stereo not given) | 0.277 | > 4 | Stable | – | –
22 | CC1=C(CC(=O)OCCOc2ccc3oc(=O)ccc3c2)c2cc(F)ccc2/C1=C\c1ccc([S+](C)[O-])cc1 (stereo not given) | 0.0917 | > 4 | Stable | – | –
23 | COc1ccc2c(c1)c(CC(=O)NCCOc1ccc3oc(=O)ccc3c1)c(C)n2C(=O)c1ccc(Cl)cc1 | > 4 | > 4 | – | – | –
24 | COc1ccc2cc([C@H](C)C(=O)NCCOc3ccc4oc(=O)ccc4c3)ccc2c1 | > 4 | > 4 | – | – | –
25 | COc1ccc2cc([C@H](C)C(=O)NCCOc3ccc4ccc(=O)oc4c3)ccc2c1 | > 4 | > 4 | – | – | –
26 | CC(C(=O)NCCOc1ccc2oc(=O)ccc2c1)c1ccc(-c2ccccc2)c(F)c1 (stereo not given) | > 4 | > 4 | – | – | –
27 | CC1=C(CC(=O)NCCOc2ccc3ccc(=O)oc3c2)c2cc(F)ccc2/C1=C\c1ccc([S+](C)[O-])cc1 (stereo not given) | > 4 | > 4 | – | – | –
28 | COc1ccc2c(c1)c(CC(=O)OCCOc1ccc3oc(=O)ccc3c1)c(C)n2C(=O)c1ccc(Cl)cc1 | 0.0467 | > 4 | Stable | – | –
29 | CC1=C(CC(=O)NCCOc2ccc3oc(=O)ccc3c2)c2cc(F)ccc2/C1=C\c1ccc([S+](C)[O-])cc1 (stereo not given) | > 4 | > 4 | – | – | –

From ChEMBL document CHEMBL4402543, “Bioisosteric Development of Multitarget Nonsteroidal Anti-Inflammatory Drug-Carbonic Anhydrases Inhibitor Hybrids for the Management of Rheumatoid Arthritis” (J Med Chem, 2020)
